# Values quoted from earlier work in patent publication US7333894B2, “Methods for the diagnosis of hemodialysis patients and utilization of such methods to improve the administration of intravenous levocarnitine treatments to hemodialysis patients” (Sigma-Tau Pharmaceuticals, Inc., priority 2002, dated 2008).
# Columns and labels:
# [1] = hemodialysis patient, one dialysis session
# [2] = intravenous administration at the end of a dialysis session, ESRD patients
compound,measurement,setting,value
"C[N+](C)(C)C[C@H](O)CC(=O)[O-] [carnitine, levocarnitine]",carnitine present in the plasma removed during a dialysis session,[1],more than 70%
same,time for plasma carnitine levels to return to pre-dialysis baseline levels,[2],10 to 24 h
